Assays:
Conditions in all cases: 72 h
[1] = tested on: Caco-2; assay: cell viability relative to DMSO; higher = less toxic
[2] = tested on: Calu-3; assay: as above
[3] = tested on: HepG2; assay: as above
[4] = tested on: U2OS; assay: as above
[5] = tested on: Vero E6; assay: as above
[6] = tested on: Caco-2; assay: relative viability EC50 (midpoint between 100% and the lowest measured viability); higher = less toxic
[7] = tested on: Calu-3; assay: as above
[8] = tested on: HepG2; assay: as above
[9] = tested on: U2OS; assay: as above
[10] = tested on: Vero E6; assay: as above
[11] = tested on: Caco-2; assay: drug sensitivity score (DSS) for viability; higher = more toxic; extreme values may be limits of the assay
[12] = tested on: Calu-3; assay: as above
[13] = tested on: HepG2; assay: as above
[14] = tested on: U2OS; assay: as above
[15] = tested on: Vero E6; assay: as above

CCn1cc(C(=O)O)c(=O)c2cc(F)c(N3CCNC(C)C3)c(F)c21 (stereo not given) [lomefloxacin]
cell viability ([1]; 1 nM): 107%
cell viability ([1]; 10 nM): 103%
cell viability ([1]; 100 nM): 108%
cell viability ([1]; 1000 nM): 91.2%
cell viability ([1]; 10000 nM): 104%
cell viability ([2]; 1 nM): 95.8%
cell viability ([2]; 10 nM): 96.8%
cell viability ([2]; 100 nM): 108%
cell viability ([2]; 1000 nM): 80.1%
cell viability ([2]; 10000 nM): 94.6%
cell viability ([3]; 1 nM): 114%
cell viability ([3]; 10 nM): 111%
cell viability ([3]; 100 nM): 120%
cell viability ([3]; 1000 nM): 102%
cell viability ([3]; 10000 nM): 94.1%
cell viability ([4]; 1 nM): 105%
cell viability ([4]; 10 nM): 98.3%
cell viability ([4]; 100 nM): 102%
cell viability ([4]; 1000 nM): 104%
cell viability ([4]; 10000 nM): 104%
cell viability ([5]; 1 nM): 105%
cell viability ([5]; 10 nM): 103%
cell viability ([5]; 100 nM): 98.8%
cell viability ([5]; 1000 nM): 106%
cell viability ([5]; 10000 nM): 95.3%
relative viability EC50 [6]: > 10 µM
relative viability EC50 [7]: > 10 µM
relative viability EC50 [8]: > 10 µM
relative viability EC50 [9]: > 10 µM
relative viability EC50 [10]: > 10 µM
drug sensitivity score [11]: 0
drug sensitivity score [12]: 2.4
drug sensitivity score [13]: 0
drug sensitivity score [14]: 0
drug sensitivity score [15]: 0

O=C1Nc2ccc(Cl)cc2[C@@](C#CC2CC2)(C(F)(F)F)O1 [efavirenz]
cell viability ([1]; 1 nM): 95.7%
cell viability ([1]; 10 nM): 96.3%
cell viability ([1]; 100 nM): 83.3%
cell viability ([1]; 1000 nM): 96.3%
cell viability ([1]; 10000 nM): 124%
cell viability ([2]; 1 nM): 97.5%
cell viability ([2]; 10 nM): 107%
cell viability ([2]; 100 nM): 93.8%
cell viability ([2]; 1000 nM): 97.7%
cell viability ([2]; 10000 nM): 114%
cell viability ([3]; 1 nM): 92.1%
cell viability ([3]; 10 nM): 86.1%
cell viability ([3]; 100 nM): 95.9%
cell viability ([3]; 1000 nM): 83.4%
cell viability ([3]; 10000 nM): 94.6%
cell viability ([4]; 1 nM): 99.2%
cell viability ([4]; 10 nM): 96.3%
cell viability ([4]; 100 nM): 98.4%
cell viability ([4]; 1000 nM): 106%
cell viability ([4]; 10000 nM): 94.5%
cell viability ([5]; 1 nM): 98.4%
cell viability ([5]; 10 nM): 93.5%
cell viability ([5]; 100 nM): 91.4%
cell viability ([5]; 1000 nM): 90%
cell viability ([5]; 10000 nM): 101%
relative viability EC50 [6]: > 10 µM
relative viability EC50 [7]: > 10 µM
relative viability EC50 [8]: > 10 µM
relative viability EC50 [9]: > 10 µM
relative viability EC50 [10]: > 10 µM
drug sensitivity score [11]: 0
drug sensitivity score [12]: 0
drug sensitivity score [13]: 0
drug sensitivity score [14]: 0
drug sensitivity score [15]: 0

N#CN1CCCC1 [pyrrolidine-1-carbonitrile]
cell viability ([1]; 1 nM): 103%
cell viability ([1]; 10 nM): 94.7%
cell viability ([1]; 100 nM): 95.4%
cell viability ([1]; 1000 nM): 95.9%
cell viability ([1]; 10000 nM): 110%
cell viability ([2]; 1 nM): 97.6%
cell viability ([2]; 10 nM): 104%
cell viability ([2]; 100 nM): 108%
cell viability ([2]; 1000 nM): 107%
cell viability ([2]; 10000 nM): 97.9%
cell viability ([3]; 1 nM): 90.6%
cell viability ([3]; 10 nM): 91.1%
cell viability ([3]; 100 nM): 94.4%
cell viability ([3]; 1000 nM): 95.2%
cell viability ([3]; 10000 nM): 101%
cell viability ([4]; 1 nM): 90.3%
cell viability ([4]; 10 nM): 98%
cell viability ([4]; 100 nM): 97.9%
cell viability ([4]; 1000 nM): 104%
cell viability ([4]; 10000 nM): 107%
cell viability ([5]; 1 nM): 99.6%
cell viability ([5]; 10 nM): 99.2%
cell viability ([5]; 100 nM): 98.2%
cell viability ([5]; 1000 nM): 95.3%
cell viability ([5]; 10000 nM): 105%
relative viability EC50 [6]: > 10 µM
relative viability EC50 [7]: > 10 µM
relative viability EC50 [8]: > 10 µM
relative viability EC50 [9]: > 10 µM
relative viability EC50 [10]: > 10 µM
drug sensitivity score [11]: 0
drug sensitivity score [12]: 0
drug sensitivity score [13]: 0
drug sensitivity score [14]: 0
drug sensitivity score [15]: 0

COc1ccc2c(c1)C(=O)N(CCc1ccc(S(=O)(=O)NC(=O)NC3CCCCC3)cc1)C(=O)C2(C)C [gliquidone]
cell viability ([1]; 1 nM): 88.1%
cell viability ([1]; 10 nM): 95.3%
cell viability ([1]; 100 nM): 109%
cell viability ([1]; 1000 nM): 102%
cell viability ([1]; 10000 nM): 101%
cell viability ([2]; 1 nM): 106%
cell viability ([2]; 10 nM): 96.5%
cell viability ([2]; 100 nM): 99.9%
cell viability ([2]; 1000 nM): 104%
cell viability ([2]; 10000 nM): 106%
cell viability ([3]; 1 nM): 103%
cell viability ([3]; 10 nM): 98.9%
cell viability ([3]; 100 nM): 96.4%
cell viability ([3]; 1000 nM): 106%
cell viability ([3]; 10000 nM): 106%
cell viability ([4]; 1 nM): 91%
cell viability ([4]; 10 nM): 89.3%
cell viability ([4]; 100 nM): 102%
cell viability ([4]; 1000 nM): 87.1%
cell viability ([4]; 10000 nM): 95.9%
cell viability ([5]; 1 nM): 97.8%
cell viability ([5]; 10 nM): 99.5%
cell viability ([5]; 100 nM): 92.3%
cell viability ([5]; 1000 nM): 100%
cell viability ([5]; 10000 nM): 94.9%
relative viability EC50 [6]: > 10 µM
relative viability EC50 [7]: > 10 µM
relative viability EC50 [8]: > 10 µM
relative viability EC50 [9]: > 10 µM
relative viability EC50 [10]: > 10 µM
drug sensitivity score [11]: 0
drug sensitivity score [12]: 0
drug sensitivity score [13]: 0
drug sensitivity score [14]: 0
drug sensitivity score [15]: 0
